Source: patent US20250262336A1, “[177LU] LUTETIUM-PSMA I&T COMPOSITION AND DOSIMETRY, KIT, METHOD OF MAKING, AND METHOD OF USING THEREOF” (Curium US LLC, priority 2023, published 2025)

Assay: Cycle 1 normal organ dosimetry (SPECT/CT, TIACs, OLINDA 2.2.3)
Type: in vivo, human
Conditions: for Absorbed Dose, Mean / Absorbed Dose, max / Absorbed Dose, median / Absorbed Dose, min: Cycle 1, n = 26; for Absorbed Dose in Cycle 1, Mean / Absorbed Dose in Cycle 1, max / Absorbed Dose in Cycle 1, min: N = 16 patients imaged at cycle 1 and 3
Procedure: This Example presents the biodistribution, dosimetry, and pharmacokinetics (PK) results of a PK/Dosimetry sub-study performed as part of a Phase III trial. Twenty-seven (27) patients were administered a target activity of 7.4±10% GBq of ^177Lu-PSMA-I&T and underwent single photon emission computed tomography (SPECT)/computed tomography (CT) imaging at four timepoints (4 h, 24 h, 48 h, and 168 h). Image data was analysed to compute time-activity curves (TACs) and subsequently time-integrated activity coefficients (TIACs) in each organ of interest and in organs showing appreciable and meaningful ^177Lu-PSMA-I&T activity. Organ Level Internal Dose Assessment (OLINDA 2.2.3) was used to compute organ and whole body absorbed radiation doses for each patient.
All participating sites underwent a rigorous site setup process during which all dose calibrators, scanners, and gamma counters used in the sub-study were calibrated. Sites were allowed to enroll patients in the sub-study only after the completion and approval of all site setup processes by Invicro. Patients underwent SPECT/CT imaging, with anatomical coverage typically extending from the salivary glands to the pelvis, following the administration of a targeted 7.4±10% GBq of ^177Lu-PSMA-I&T at cycle 1. SPECT/CT imaging was performed at four timepoints: 4 h, 24 h, 48 h, and 168 h post-injection. Additionally, a subset of patients imaged at Cycle 1 (16 out of 27), were also imaged at Cycle 3 (Table 2).
In general, raw projection data was acquired into a 128×128 matrix with medium energy general purpose (MEGP) collimation using a step and shoot acquisition mode, acquiring 60 projections per detector (180 degrees rotation per detector), 20 seconds per projection, with an acquisition zoom of 1.0, and a 20% (±10%) energy window centered over 208 keV.
A low-dose CT scan was performed prior to beginning the SPECT scan for attenuation correction. Sites were instructed to use the Institutional standard parameters for acquisition of the low-dose CT. Institutional standard reconstruction parameters were used. Scatter correction was required to be applied using a 20% (±10%) scatter window centered over 170 keV.
The imaging data was analyzed using Invicro's VivoQuant software, a validated software used in a 21 CFR § 11-compliant workflow. The general quantification approach was based on the principles detailed in the Medical Internal Radiation Dose (MIRD) Pamphlet No. 16, No 23, and No 26 as appropriate.
SPECT images were calibrated in units of Becquerel (Bq) using a calibration factor derived from a source of known activity, measured during site set up with the same acquisition and reconstruction parameters employed for patient imaging. A patient-specific calibration factor was also derived at each clinical time point after acquisition of the patient SPECT/CT. As a quality control measure, if the patient-specific calibration factor differed by more than 10% from the site set up calibration factor, an investigation was conducted.
Volume of interest (VOI) (kidneys, bladder, liver, lumbar vertebrae L2-L4, lacrimal glands, salivary glands [parotid and submandibular glands], and whole body) were delineated on each dataset by a trained image analyst. […] Organs were segmented either by drawing the entire contour of the organ, or by placing a sphere in a representative region of the organ and then multiplying by the organ's effective mass (based on patient's height and weight). Segmentation methods for each organ are specified in Table 3 and were consistently applied to each patient.
Clearance of the radiopharmaceutical was derived from a data-appropriate fit of each organ's TAC. Depending on the TAC's shape, the data was fitted with the sum of one, two, or three exponentials, or using a rise and fall model. Fitting was performed with in-house Python software. TIACs were calculated through analytical integration of the curve fit extrapolated to infinity. […]

[1] = Lacrimal Glands (OLINDA sphere model)

Absorbed Dose, Mean (Adrenals): 0.02 Gy/GBq | Absorbed Dose, max (Adrenals): 0.08 Gy/GBq | Absorbed Dose, median (Adrenals): 0.02 Gy/GBq | Absorbed Dose, min (Adrenals): 0.01 Gy/GBq | Absorbed Dose in Cycle 1, Mean (Adrenals): 0.02 Gy/GBq | Absorbed Dose in Cycle 1, max (Adrenals): 0.08 Gy/GBq | Absorbed Dose in Cycle 1, min (Adrenals): 0.01 Gy/GBq | Absorbed Dose, Mean (Brain): 0.01 Gy/GBq | Absorbed Dose, max (Brain): 0.07 Gy/GBq | Absorbed Dose, median (Brain): 0.01 Gy/GBq | Absorbed Dose, min (Brain): 0.00 Gy/GBq | Absorbed Dose in Cycle 1, Mean (Brain): 0.01 Gy/GBq | Absorbed Dose in Cycle 1, max (Brain): 0.07 Gy/GBq | Absorbed Dose in Cycle 1, min (Brain): 0.00 Gy/GBq | Absorbed Dose, Mean (Esophagus): 0.02 Gy/GBq | Absorbed Dose, max (Esophagus): 0.07 Gy/GBq | Absorbed Dose, median (Esophagus): 0.01 Gy/GBq | Absorbed Dose, min (Esophagus): 0.00 Gy/GBq | Absorbed Dose in Cycle 1, Mean (Esophagus): 0.01 Gy/GBq | Absorbed Dose in Cycle 1, max (Esophagus): 0.07 Gy/GBq | Absorbed Dose in Cycle 1, min (Esophagus): 0.00 Gy/GBq | Absorbed Dose, Mean (Eyes): 0.01 Gy/GBq | Absorbed Dose, max (Eyes): 0.07 Gy/GBq | Absorbed Dose, median (Eyes): 0.01 Gy/GBq | Absorbed Dose, min (Eyes): 0.00 Gy/GBq | Absorbed Dose in Cycle 1, Mean (Eyes): 0.01 Gy/GBq | Absorbed Dose in Cycle 1, max (Eyes): 0.07 Gy/GBq | Absorbed Dose in Cycle 1, min (Eyes): 0.00 Gy/GBq | Absorbed Dose, Mean (Gallbladder wall): 0.02 Gy/GBq | Absorbed Dose, max (Gallbladder wall): 0.07 Gy/GBq | Absorbed Dose, median (Gallbladder wall): 0.01 Gy/GBq | Absorbed Dose, min (Gallbladder wall): 0.00 Gy/GBq | Absorbed Dose in Cycle 1, Mean (Gallbladder wall): 0.02 Gy/GBq | Absorbed Dose in Cycle 1, max (Gallbladder wall): 0.07 Gy/GBq | Absorbed Dose in Cycle 1, min (Gallbladder wall): 0.00 Gy/GBq | Absorbed Dose, Mean (Heart wall): 0.02 Gy/GBq | Absorbed Dose, max (Heart wall): 0.07 Gy/GBq | Absorbed Dose, median (Heart wall): 0.01 Gy/GBq | Absorbed Dose, min (Heart wall): 0.00 Gy/GBq | Absorbed Dose in Cycle 1, Mean (Heart wall): 0.01 Gy/GBq | Absorbed Dose in Cycle 1, max (Heart wall): 0.07 Gy/GBq | Absorbed Dose in Cycle 1, min (Heart wall): 0.00 Gy/GBq | Absorbed Dose, Mean (Kidneys): 0.41 Gy/GBq | Absorbed Dose, max (Kidneys): 0.81 Gy/GBq | Absorbed Dose, median (Kidneys): 0.37 Gy/GBq | Absorbed Dose, min (Kidneys): 0.17 Gy/GBq | Absorbed Dose in Cycle 1, Mean (Kidneys): 0.41 Gy/GBq | Absorbed Dose in Cycle 1, max (Kidneys): 0.81 Gy/GBq | Absorbed Dose in Cycle 1, min (Kidneys): 0.17 Gy/GBq | Absorbed Dose in Cycle 1, Mean [1]: 0.39 Gy/GBq | Absorbed Dose in Cycle 1, max [1]: 1.19 Gy/GBq | Absorbed Dose in Cycle 1, min [1]: 0.04 Gy/GBq | Absorbed Dose, Mean (Lacrimal Glands): 0.40 Gy/GBq | Absorbed Dose, max (Lacrimal Glands): 1.19 Gy/GBq | Absorbed Dose, median (Lacrimal Glands): 0.26 Gy/GBq | Absorbed Dose, min (Lacrimal Glands): 0.04 Gy/GBq | Absorbed Dose, Mean (Left colon): 0.47 Gy/GBq | Absorbed Dose, max (Left colon): 1.53 Gy/GBq | Absorbed Dose, median (Left colon): 0.41 Gy/GBq | Absorbed Dose, min (Left colon): 0.01 Gy/GBq | Absorbed Dose in Cycle 1, Mean (Left colon): 0.52 Gy/GBq | Absorbed Dose in Cycle 1, max (Left colon): 1.53 Gy/GBq | Absorbed Dose in Cycle 1, min (Left colon): 0.01 Gy/GBq | Absorbed Dose, Mean (Liver): 0.04 Gy/GBq | Absorbed Dose, max (Liver): 0.10 Gy/GBq | Absorbed Dose, median (Liver): 0.03 Gy/GBq | Absorbed Dose, min (Liver): 0.01 Gy/GBq | Absorbed Dose in Cycle 1, Mean (Liver): 0.04 Gy/GBq | Absorbed Dose in Cycle 1, max (Liver): 0.10 Gy/GBq | Absorbed Dose in Cycle 1, min (Liver): 0.01 Gy/GBq | Absorbed Dose, Mean (Lungs): 0.01 Gy/GBq | Absorbed Dose, max (Lungs): 0.07 Gy/GBq | Absorbed Dose, median (Lungs): 0.01 Gy/GBq | Absorbed Dose, min (Lungs): 0.00 Gy/GBq | Absorbed Dose in Cycle 1, Mean (Lungs): 0.01 Gy/GBq | Absorbed Dose in Cycle 1, max (Lungs): 0.07 Gy/GBq | Absorbed Dose in Cycle 1, min (Lungs): 0.00 Gy/GBq | Absorbed Dose, Mean (Osteogenic cells): 0.05 Gy/GBq | Absorbed Dose, max (Osteogenic cells): 0.29 Gy/GBq | Absorbed Dose, median (Osteogenic cells): 0.02 Gy/GBq | Absorbed Dose, min (Osteogenic cells): 0.00 Gy/GBq | Absorbed Dose in Cycle 1, Mean (Osteogenic cells): 0.04 Gy/GBq | Absorbed Dose in Cycle 1, max (Osteogenic cells): 0.19 Gy/GBq | Absorbed Dose in Cycle 1, min (Osteogenic cells): 0.00 Gy/GBq | Absorbed Dose, Mean (Pancreas): 0.02 Gy/GBq | Absorbed Dose, max (Pancreas): 0.07 Gy/GBq | Absorbed Dose, median (Pancreas): 0.01 Gy/GBq | Absorbed Dose, min (Pancreas): 0.00 Gy/GBq | Absorbed Dose in Cycle 1, Mean (Pancreas): 0.02 Gy/GBq | Absorbed Dose in Cycle 1, max (Pancreas): 0.07 Gy/GBq | Absorbed Dose in Cycle 1, min (Pancreas): 0.00 Gy/GBq | Absorbed Dose, Mean (Prostate): 0.02 Gy/GBq | Absorbed Dose, max (Prostate): 0.07 Gy/GBq | Absorbed Dose, median (Prostate): 0.01 Gy/GBq | Absorbed Dose, min (Prostate): 0.01 Gy/GBq
Structure (SMILES): O=C(O)CC[C@H](NC(=O)N[C@@H](CCCCNC(=O)CCCCCCC(=O)NCCCC[C@@H](NC(=O)[C@@H](Cc1ccccc1)NC(=O)[C@@H](Cc1ccc(O)c(I)c1)NC(=O)CC[C@H](C(=O)O)N1CCN(CC(=O)O)CCN(CC(=O)O)CCN(CC(=O)O)CC1)C(=O)O)C(=O)O)C(=O)O [^177Lu-PSMA-I&T, (3S,7 S,26R,29R,32R,37R)-29-benzyl-32-(4-hydroxy-3-iodobenzyl)-5,13,20,28,31,34-hexaoxo-37-(4,7,10-tris(carboxymethyl)-1,4,7,10-tetraazacyclododecan-1-yl)-4,6,12,21,27,30,33-heptaazaheptatriacontane-1,3,7,26,37-pentacarboxylic acid; lutetium-177 (III), metal not drawn]
